Data as given in publication PMC4089482, “Bacterial periplasmic sialic acid-binding proteins exhibit a conserved binding site” (Acta Crystallographica Section D: Biological Crystallography, 2014).

Test system: V. cholerae O1 biovar eltor strain N16961
Experiment: Growth-curve experiment in M9 minimal medium with different sugars
Assay type: cell-based, Vibrio cholerae
Settings: M9 minimal medium supplemented with sugar (5 mg ml^−1; all at 5 mM), 37°C
Protocol: V. cholerae O1 biovar eltor strain N16961 was initially grown on LB agar plates. Subsequently, 3 ml M9 minimal medium supplemented with different sugars (5 mg ml^−1) was inoculated with bacteria at an OD600 of 0.07. These cultures were incubated in a 37°C shaker at 225 rev min^−1. Optical densities at A 600 were measured at various time points using a Spectronic GENESYS 20 Visible Spectrophotometer to observe the growth pattern of V. cholerae in different compounds. The different sugars used were Neu5Ac, Neu5Gc, fetuin (a glycoprotein of foetal serum that contains different sugars and sialic acid; Spiro, 1960[▶]), asialofetuin, galactose, glycerol, D-lactic acid, succinate, sucrose, DL-malic acid and fructose, all at 5 mM concentration. Based on the readings, a graph of OD600 was plotted.

Compound	growth of V. cholerae in the presence of the compound (OD600)
O=C(O)CC(O)C(=O)O (racemic) [DL-malic acid]	Little growth
O=C(CO)[C@@H](O)[C@H](O)[C@H](O)CO [fructose]	Little growth
C[C@@H](O)C(=O)O [D-lactic acid]	No growth
O=C[C@H](O)[C@@H](O)[C@@H](O)[C@H](O)CO [galactose]	No growth
OCC(O)CO [glycerol]	No growth
OC[C@H]1O[C@@](CO)(O[C@H]2O[C@H](CO)[C@@H](O)[C@H](O)[C@H]2O)[C@@H](O)[C@@H]1O [sucrose]	Little growth
